Molecules are shown by their SMILES.

The nature of this series: gradient 5% acetonitrile 3 min, to 50% in 2 min, to 85% in 15 min, held 3 min, 100 µL/min. Particulars: column: Zorbax Extend-C18 2.1 x 50 mm; eluents: water / acetonitrile, 0.1% formic acid. Summed up:
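The mobile phases were water and acetonitrile, each with 0.1% formic acid, pumped at 100 μL/min through a Zorbax Extend-C18 column (2.1 × 50 mm, 1.8 μm). Pure standards were injected as mixtures of ~100 molecules and detected by a quadrupole time-of-flight mass spectrometer in positive and negative ionization mode. Retention time came from computationally picked adduct peaks, each inspected by hand.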
In turn, `COc1ccc(S(=O)(=O)N2CC3CN(C(=O)C4CCCCC4)CC(C2)O3)cc1` returned an RP-LC retention time of 850 s.

In turn, `Cn1c(CNC(=O)C2CCc3sc(C(=O)N4CCCC4)cc3C2)nc2ccccc21` (configuration not stated) came in with an RP-LC retention time of 602 s.

In the case of `O=S(=O)(c1ccc2c(c1)CCC2)N1CCC(Cc2nncn2-c2ccccc2)C1` (configuration not stated), the RP-LC retention time worked out at 846 s.

`Cc1cc2c(cc1NC(=O)c1cccs1)n(C)c(=O)n2C` came in with an RP-LC retention time of 668 s.

For the compound `CCc1ccc(-n2nnc(C(=O)N3CCC(N4CCCCC4)CC3)c2-c2ccncc2)cc1`, the RP-LC retention time turned out to be 634 s.

The compound `CC(=O)OCCn1c([N+](=O)[O-])cnc1/C=[N+](\[O-])C1CCCCC1` gave an RP-LC retention time of 753 s.

Compound `CC(C)CC(=O)Nc1ccc(N2CCN(CC(=O)N(C)C)CC2)cc1C(=O)O` registered an RP-LC retention time of 595 s.

`CC1(C(=O)NCc2ccccc2)CN(S(C)(=O)=O)CC(=O)N1Cc1ccc(F)cc1` (configuration not stated) displayed an RP-LC retention time of 779 s.

In turn, `O=C(NCc1cccnc1)NC1CC(=O)N(c2ccc(Cl)cc2)C1` (configuration not stated) registered an RP-LC retention time of 546 s.

As for `COc1cc(NC(=O)C2CCCN(c3cc(=O)n(C)c(=O)n3C)C2)cc(OC)c1OC` (configuration not stated), the RP-LC retention time was 854 s.

The compound `CN1C(=O)c2cccn2CC1C(=O)NC1CCCCC1` (configuration not stated) had an RP-LC retention time of 681 s.

In the case of `Cc1ccc(NC(=O)Cn2cnc3c(sc4nc(-c5ccccc5)ccc43)c2=O)c(F)c1`, the RP-LC retention time amounted to 982 s.

In turn, `COc1ccc(CN2C[C@@H]3C(=O)N(CCCN4CCCC4=O)C(=O)[C@@H]3C2)c(OC)c1` had an RP-LC retention time of 598 s.

Turning to `COc1cc2c(Nc3ccc(Br)cc3F)ncnc2cc1OCC1CCN(C)CC1`, the RP-LC retention time is 644 s.

Consider `CCOc1ccc(CNC(=O)C2CCCN(c3ccc(=O)n(-c4ccc(CC)cc4)n3)C2)cc1` (configuration not stated), for which the RP-LC retention time was 940 s.

`Cc1ccc(NC(=O)Cn2nc3c(Oc4cccc(F)c4)nccn3c2=O)cc1F` returned an RP-LC retention time of 894 s.

As for `COc1ccc(Cc2nn3c(CSc4ccccc4)nnc3s2)cc1`, the RP-LC retention time was found to be 937 s.

As for `COc1ccc(OC)c(NC(=O)C2c3ccccc3C(=O)N3CCc4cc(OC)c(OC)cc4C23)c1` (configuration not stated), the RP-LC retention time was determined as 829 s.

`O=C(NC1CCCCCC1)c1nc(-c2ccnc(N3CCCCC3)c2)no1` registered an RP-LC retention time of 883 s.

On to `COc1ccc(Cl)cc1NC(=O)Cn1cccc1-c1nnc(C2CC2)o1`, for which the RP-LC retention time came to 972 s.

Turning to `CC1CC(=O)N(CC(=O)Nc2ccc(F)cc2F)c2ccccc2S1` (configuration not stated), the RP-LC retention time came to 914 s.

The compound `O=C1NC(c2cccc3ccccc23)Nc2ccc(Cl)cc21` (configuration not stated) gave an RP-LC retention time of 847 s.

In the case of `CCn1cc(C2=CCN(S(=O)(=O)c3ccc(F)cc3)CC2)c2cccnc21`, the RP-LC retention time worked out at 1020 s.

In turn, `CCC1CN(C(=O)Nc2ccccc2)c2ccccc2O1` (configuration not stated) came in with an RP-LC retention time of 1020 s.

With `Cc1noc(-c2cc(=O)n(CC(=O)NCc3ccc(Cl)cc3)c3ccccc23)n1`, the RP-LC retention time was 888 s.

In turn, `Cc1cc(C)c(S(=O)(=O)Nc2ccc(Cn3cncn3)cc2)cc1C` showed an RP-LC retention time of 762 s.

`Cc1ccc(Oc2cccc(C(=O)NCc3ccc(F)cc3)c2)nn1` returned an RP-LC retention time of 681 s.

In turn, `Cc1ccccc1OCC(=O)N1CC(CN(C)C)C2(CCOCC2)C1` (configuration not stated) displayed an RP-LC retention time of 590 s.

Turning to `O=C(c1ccoc1)N1CC(Oc2ccc(-c3nc(-c4ccccc4)no3)cc2)C1`, the RP-LC retention time was found to be 1040 s.

`O=C(CN1CCN(Cc2ccc(F)cc2)C1=O)NCc1cccc(F)c1`: the RP-LC retention time stood at 790 s.

As for `O=C(c1ccc(Cl)s1)N1CCc2nc(-c3ccc(F)cc3)ncc2C1`, the RP-LC retention time is 1070 s.

With `CN(C(=O)Cn1c(=O)oc2ccc(C(=O)N3CCCC3)cc21)C1CCCCC1`, the RP-LC retention time was 761 s.

These data come from the METLIN SMRT retention time set (Domingo-Almenara et al. 2019).
